According to ChEMBL document CHEMBL4673347, “Discovery of new thieno[2,3-d]pyrimidine and thiazolo[5,4-d]pyrimidine derivatives as orally active phosphoinositide 3-kinase inhibitors” (Bioorg Med Chem, 2021):
Calls of active or inactive are those of the source. The rule behind the calls is not given here.

Key:
[1] = Antiproliferative activity against human KATO III stomach cancer cell line cells assessed as reduction in cell viability incubated for 72 hrs measured after 4 hrs of MTT addition by MTT assay; assay type: functional
NCI-H460 = assay: Antiproliferative activity against human NCI-H460 cells assessed as reduction in cell viability incubated for 72 hrs measured after 4 hrs of MTT addition by MTT assay; assay type: functional, cell-based
HGC-27 [2] = assay: Antitumor activity against human HGC-27 cells xenografted in BALB/c mouse assessed as tumor growth inhibition at 40 mg/kg, po administered for 25 days and measured on day 25 relative to control; assay type: functional; conditions: HGC-27, po, 600 h, time 25 day, read-out: TGI
[3] = Apparent permeability across basolateral to apical side in human Caco-2 cells; assay type: ADME, cell-based
SGC-7901 = assay: Antiproliferative activity against human SGC-7901 cells assessed as reduction in cell viability incubated for 72 hrs measured after 4 hrs of MTT addition by MTT assay; assay type: functional, cell-based
MKN-45 = assay: Antiproliferative activity against human MKN-45 cells assessed as reduction in cell viability incubated for 72 hrs measured after 4 hrs of MTT addition by MTT assay; assay type: functional, cell-based
Mus musculus = assay: In vivo inhibition of PI3Kalpha in BALB/c mouse assessed as increase in plasma glucose level at 40 mg/kg, po measured after 24 hrs; assay type: functional, organism-based
[4] = Oral bioavailability in ICR mouse at 40 mg/kg measured upto 24 hrs by LC-MS/MS analysis; assay type: ADME, organism-based; conditions: in vivo
[5] = molecular target: Phosphatidylinositol 4,5-bisphosphate 3-kinase catalytic subunit delta isoform (Homo sapiens, UniProt O00329); assay: Inhibition of recombinant human full length His-tagged PI3Kdelta expressed in baculovirus expression system using PIP2 as substrate by ADP-Glo reagent based assay
Sequence of Phosphatidylinositol 4,5-bisphosphate 3-kinase catalytic subunit delta isoform (O00329 whole entry, canonical isoform): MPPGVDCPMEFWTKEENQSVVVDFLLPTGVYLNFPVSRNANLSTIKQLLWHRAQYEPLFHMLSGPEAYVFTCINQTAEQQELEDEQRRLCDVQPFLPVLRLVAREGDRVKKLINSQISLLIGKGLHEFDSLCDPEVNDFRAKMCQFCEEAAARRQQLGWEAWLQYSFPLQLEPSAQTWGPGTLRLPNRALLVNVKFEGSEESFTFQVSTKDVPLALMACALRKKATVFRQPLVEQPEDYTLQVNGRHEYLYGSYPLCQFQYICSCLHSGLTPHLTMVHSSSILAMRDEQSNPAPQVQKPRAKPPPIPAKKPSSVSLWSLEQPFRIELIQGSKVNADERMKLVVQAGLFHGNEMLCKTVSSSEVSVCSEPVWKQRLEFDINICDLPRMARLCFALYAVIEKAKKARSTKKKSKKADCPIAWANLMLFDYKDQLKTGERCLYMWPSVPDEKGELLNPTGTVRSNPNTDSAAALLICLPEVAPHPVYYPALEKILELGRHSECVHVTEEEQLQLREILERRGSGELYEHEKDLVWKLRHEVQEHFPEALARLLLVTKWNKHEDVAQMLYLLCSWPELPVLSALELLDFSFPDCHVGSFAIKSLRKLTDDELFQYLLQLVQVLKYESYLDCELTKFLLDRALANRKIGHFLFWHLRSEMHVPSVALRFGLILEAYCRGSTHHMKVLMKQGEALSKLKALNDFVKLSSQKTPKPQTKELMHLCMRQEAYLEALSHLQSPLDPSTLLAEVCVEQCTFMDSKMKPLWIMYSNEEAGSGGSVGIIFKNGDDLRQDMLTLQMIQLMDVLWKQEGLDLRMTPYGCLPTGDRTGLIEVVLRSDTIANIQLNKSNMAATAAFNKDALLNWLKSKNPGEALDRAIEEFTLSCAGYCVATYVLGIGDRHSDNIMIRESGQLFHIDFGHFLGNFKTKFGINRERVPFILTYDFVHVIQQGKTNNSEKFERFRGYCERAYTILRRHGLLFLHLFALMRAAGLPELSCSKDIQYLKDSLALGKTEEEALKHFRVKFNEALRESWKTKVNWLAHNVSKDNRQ

MG-63 = assay: Antiproliferative activity against human MG-63 cells assessed as reduction in cell viability incubated for 72 hrs measured after 4 hrs of MTT addition by MTT assay; assay type: functional, cell-based
MDA-MB-231 = assay: Antiproliferative activity against human MDA-MB-231 cells assessed as reduction in cell viability incubated for 72 hrs measured after 4 hrs of MTT addition by MTT assay; assay type: functional, cell-based
HGC-27 [6] = assay: Antitumor activity against human HGC-27 cells xenografted in BALB/c mouse assessed as tumor growth inhibition at 20 mg/kg, po administered for 25 days and measured on day 25 relative to control; assay type: functional; conditions: HGC-27, po, 600 h, time 25 day, read-out: TGI
HGC-27 [7] = assay: Antitumor activity against human HGC-27 cells xenografted in BALB/c mouse assessed as tumor growth inhibition administered orally for 25 days and measured on day 25; assay type: functional; conditions: time 25.0 day
[8] = Toxicity in BALB/c mouse xenografted with human HGC-27 cells assessed as body weight reduction at 40 mg/kg, po administered for 25 days and measured on day 25; assay type: organism-based; design: scale not given: the % may be the effect or the level left; conditions: in vivo, 600 h, time 25 day

| IC50 (NCI-H460) [nM] | Papp B→A [3] [×10⁻⁶ cm/s] | IC50 (SGC-7901) [nM] | IC50 (MKN-45) [nM] | bioavailability [4] [%] | IC50 [5] [nM] | IC50 (MDA-MB-231) [nM] | SMILES | IC50 [1] [nM] | inhibition in vivo at 40 mg/kg (HGC-27 [2]) [%] | inhibition (Mus musculus) | IC50 (MG-63) [nM] | inhibition in vivo at 20 mg/kg (HGC-27 [6]) [%] | TGI (HGC-27 [7]) | Activity [8] [%] |
| --- | --- | --- | --- | --- | --- | --- | --- | --- | --- | --- | --- | --- | --- | --- |
| 4000 | 37.6 | 5200 | 2600 | 99.5 | 3.9 | 8200 | COc1ncc(-c2cc3c(N4CCOCC4)ncnc3s2)cc1NS(=O)(=O)c1ccc(F)cc1F | 4700 | 58.2 | inactive | 7000 | – | – | – |
| 490 | 43.4 | 640 | 1100 | 54.5 | 1 | 860 | COc1ncc(-c2nc3c(N4CCOCC4)ncnc3s2)cc1NS(=O)(=O)c1ccc(F)cc1F | 930 | 88.7 | inactive | 360 | 75.5 | Dose-dependent effect | 14.8 |
